Results: patent publication US20240148821A1, “PHARMACEUTICAL USE OF CYCLIC PEPTIDE COMPOUND” (CHUGAI SEIYAKU KABUSHIKI KAISHA, priority 2021, published 2024)
Bridge positions count the residues as written; N and C are the ends. Square brackets hold non-standard residues; d marks the D form. Peptide text beside a SMILES is read from it. * marks the point of attachment. hPhe(3,5-F2-4-CF3) = N[C@@H](CCc1cc(F)c(C(F)(F)F)c(F)c1)C(=O)O; hPhe(3-Cl-4-CF3) = N[C@@H](CCc1ccc(C(F)(F)F)c(Cl)c1)C(=O)O; NEtPhe(4-CF3) = CCN[C@@H](Cc1ccc(C(F)(F)F)cc1)C(=O)O; NMePhe(4-CF3) = CN[C@@H](Cc1ccc(C(F)(F)F)cc1)C(=O)O; 3Oxa8azabicyclo(3.2.1)octane = C1CC2COCC1N2*; NMePhe(4-Me) = CN[C@@H](Cc1ccc(C)cc1)C(=O)O; NMeNle(6-CHF2) = CN[C@@H](CCCCC(F)F)C(=O)O; NMeGly(cPent) = CN[C@H](C(=O)O)C1CCCC1; Pro(4,4-F2) = O=C(O)[C@@H]1CC(F)(F)CN1; Met(O2) = CS(=O)(=O)CC[C@H](N)C(=O)O; NMeCha = CN[C@@H](CC1CCCCC1)C(=O)O; NMehLeu = CN[C@@H](CCC(C)C)C(=O)O; Hyp = O=C(O)[C@@H]1C[C@@H](O)CN1; NMeAhp(2) = CCCCC[C@H](NC)C(=O)O; NMeChg = CN[C@H](C(=O)O)C1CCCCC1; NMeI = CC[C@H](C)[C@H](NC)C(=O)O; NMeD = CN[C@@H](CC(=O)O)C(=O)O; NMeL = CN[C@@H](CC(C)C)C(=O)O; NMeV = CN[C@H](C(=O)O)C(C)C; d(β3hA) = C[C@@H](N)CC(=O)O; NMeC = CN[C@@H](CS)C(=O)O; Morpholide = C1CN(*)CCO1; NMeA = CN[C@@H](C)C(=O)O; Piperidide = C1CCN(*)CC1; Pyrrolidide = C1CCN(*)C1; dNMeA = CN[C@H](C)C(=O)O; Ac5c = NC1(C(=O)O)CCCC1; Aze = O=C(O)[C@@H]1CCN1; Sar = CNCC(=O)O

How the values were obtained:
[1] = molecular target: protein-protein interaction between Kras and SOS1 (biotin-tagged human Kras loaded with GDP, His-tagged human SOS1) (Homo sapiens (Human), UniProt P01116, G12D); assay: Protein-protein interaction inhibition between Kras and SOS1 (KrasG12D-SOS PPI) using AlphaScreen; type: biochemical; details: AlphaScreen; biotin-tagged human Kras loaded with GDP, His-tagged human SOS1; read-out: KRAS G12D-SOS PPI IC50;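 note: kras produced in E. coli, Ni-coupled donor beads and streptavidin acceptor beads, excitation 680 nm with emission detected at 520–620 nm via singlet oxygen transfer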
[2] = test system: Human pancreatic cancer cell line AsPC-1 (G12D mutation Kras); assay: AsPC-1 cell growth inhibition (AsPC-1 CGI); type: cell-based; details: read-out: AsPC-1 cell growth inhibition, 50% growth inhibitory concentration (IC50 value); 96 hours, CellTiter-Glo, values classified in ranges
Description: Test compounds were serially dilated with dimethyl sulfoxide, and 200 nL was then dispensed to a U-bottom 96-well plate using Labcyte Echo. […] The cell suspension was dispensed to a. plate containing a test compound at 100 μL per well and incubated at 37° C. in a 5% carbon dioxide gas incubator. 96 hours later, 80 μL of CellTiter-Glo (Promega) was added to each well and fluorescence was measured.

With `CCCCC[C@H]1C(=O)N[C@@H]([C@@H](C)CC)C(=O)N[C@@H](C)C(=O)N2CC[C@H]2C(=O)N(C)[C@@H](Cc2ccc(C)cc2)C(=O)N(C)CC(=O)N[C@@H](CCc2ccc(C(F)(F)F)c(Cl)c2)C(=O)N2CCC[C@H]2C(=O)NC2(CCCC2)C(=O)N(C)[C@@H]([C@@H](C)CC)C(=O)N(C)[C@H](C(=O)N(C)C)CC(=O)N1C` [Compound 342] ([NMeAhp(2)]IA[Aze][NMePhe(4-Me)][Sar][hPhe(3-Cl-4-CF3)]P[Ac5c][NMeI][NMeD]-NMe2; lactam N-11) the IC50 [1] was 0.95 nM and the IC50 [2] was no more than 20 nM.
With `CC[C@H](C)[C@@H]1NC(=O)CSC[C@@H](C(=O)N(C)C)N(C)C(=O)[C@H]([C@@H](C)CC)N(C)C(=O)C2(CCCC2)NC(=O)[C@@H]2CCCN2C(=O)[C@H](CCc2ccc(C(F)(F)F)c(Cl)c2)NC(=O)CN(C)C(=O)[C@H](Cc2ccc(C)cc2)N(C)C(=O)CN(C)C(=O)CN(C)C1=O` [Compound 2173, (3S,9S,18S,24R,27S,33S)-18,27-bis[(2S)-butan-2-yl]-3-[2-[3-chloro-4-(trifluoromethyl)phenyl]ethyl]—N,N,7,10,13,16,25,28-octamethyl-9-[(4-methylphenyl)methyl]-2,5,8,11,14,17,20,26.,29,32-decaoxospiro[22-thia-1,4,7,10,13,16,19,25,28,31-decazabicyclo[31.3.0]hexatriacontane-30,1-cyclopentane]-24-carboxamide] ({CH2CO}-I[Sar][Sar][NMePhe(4-Me)][Sar][hPhe(3-Cl-4-CF3)]P[Ac5c][NMeI][NMeC]-NMe2; thioether N-10) the IC50 [1] was 6 nM and the IC50 [2] was greater than 500 nM.
With `CCO[C@@H]1C[C@H]2C(=O)NC3(CCCC3)C(=O)N(C)[C@@H](C3CCCCC3)C(=O)N(C)[C@H](C(=O)N3C4CCC3COC4)CC(=O)N(C)[C@@H](CC(C)C)C(=O)N[C@@H]([C@@H](C)CC)C(=O)N(C)CC(=O)N(C)CC(=O)N(C)[C@@H](CC3CCCCC3)C(=O)N(C)CC(=O)N[C@@H](CCc3ccc(C(F)(F)F)c(Cl)c3)C(=O)N2C1` [Compound 1977] ([NMeL]I[Sar][Sar][NMeCha][Sar][hPhe(3-Cl-4-CF3)][Hyp](Et)[Ac5c][NMeChg][NMeD]-{3Oxa8azabicyclo(3.2.1)octane}; lactam N-11) the IC50 [1] was 0.47 nM and the IC50 [2] was no more than 20 nM.
`CC[C@H](C)[C@@H]1NC(=O)[C@H](CC(C)C)N(C)C(=O)C[C@@H](C)NC(=O)[C@H](C2CCCCC2)N(C)C(=O)C2(CCCC2)NC(=O)[C@@H]2CCCN2C(=O)[C@H](CCc2ccc(C(F)(F)F)c(Cl)c2)NC(=O)CN(C)C(=O)[C@H](Cc2ccc(C)cc2)N(C)C(=O)[C@@H]2CCN2C(=O)[C@H](C)N(C)C1=O` [Compound 1747] (cyclo([Ac5c][NMeChg][d(β3hA)][NMeL]I[NMeA][Aze][NMePhe(4-Me)][Sar][hPhe(3-Cl-4-CF3)]P)) showed an IC50 [1] of 16 nM and an IC50 [2] greater than 500 nM.
`CC(C)C[C@H]1C(=O)N[C@@H](CCS(C)(=O)=O)C(=O)N(C)[C@@H](C)C(=O)N2CC[C@H]2C(=O)N(C)[C@@H](CC2CCCCC2)C(=O)N(C)CC(=O)N[C@@H](CCc2ccc(C(F)(F)F)c(Cl)c2)C(=O)N2CCC[C@H]2C(=O)NC2(CCCC2)C(=O)N(C)[C@@H](C(C)C)C(=O)N(C)[C@H](C(=O)N2CCCCC2)CC(=O)N1C` [Compound 174] ([NMeL][Met(O2)][NMeA][Aze][NMeCha][Sar][hPhe(3-Cl-4-CF3)]P[Ac5c][NMeV][NMeD]-Piperidide; lactam N-11) showed an IC50 [1] of 57 nM and an IC50 [2] greater than 500 nM.
`CCO[C@@H]1C[C@H]2C(=O)NC3(CCCC3)C(=O)N(C)[C@@H](C3CCCC3)C(=O)N(C)[C@H](C(=O)N3CCOCC3)CC(=O)N(C)[C@@H](CC(C)C)C(=O)N[C@@H]([C@@H](C)CC)C(=O)N(C)[C@@H](C)C(=O)N3CC[C@H]3C(=O)N(C)[C@@H](CC3CCCCC3)C(=O)N(C)CC(=O)N[C@@H](CCc3cc(F)c(C(F)(F)F)c(F)c3)C(=O)N2C1` [Compound 1250] ([NMeL]I[NMeA][Aze][NMeCha][Sar][hPhe(3,5-F2-4-CF3)][Hyp](Et)[Ac5c][NMeGly(cPent)][NMeD]-Morpholide; lactam N-11) showed an IC50 [1] of 0.63 nM and an IC50 [2] of no more than 20 nM.
In the case of `CC[C@H](C)[C@@H]1NC(=O)[C@H](CC(C)C)N(C)C(=O)C[C@@H](C(=O)N2CCOCC2)N(C)C(=O)[C@H]([C@@H](C)CC)N(C)C(=O)C2(CCCC2)NC(=O)[C@@H]2CCCN2C(=O)[C@H](CCc2ccc(C(F)(F)F)c(Cl)c2)NC(=O)CN(C)C(=O)[C@H](Cc2ccc(C(F)(F)F)cc2)N(CC)C(=O)[C@@H]2CCN2C(=O)[C@H](C)N(C)C1=O` [Compound 1312] ([NMeL]I[NMeA][Aze][NEtPhe(4-CF3)][Sar][hPhe(3-Cl-4-CF3)]P[Ac5c][NMeI][NMeD]-Morpholide; lactam N-11), the IC50 [1] is reported as 0.74 nM and the IC50 [2] is reported as no more than 20 nM.
In the case of `CC[C@H](C)[C@@H]1NC(=O)[C@H](CCC(C)C)N(C)C(=O)C[C@@H](C(=O)N2CCCC2)N(C)C(=O)[C@H]([C@@H](C)CC)N(C)C(=O)C2(CCCC2)NC(=O)[C@@H]2CCCN2C(=O)[C@H](CCc2ccc(C(F)(F)F)c(Cl)c2)NC(=O)CN(C)C(=O)[C@H](Cc2ccc(C(F)(F)F)cc2)N(C)C(=O)[C@@H]2CCN2C(=O)[C@H](C)NC1=O` [Compound 1310] ([NMehLeu]IA[Aze][NMePhe(4-CF3)][Sar][hPhe(3-Cl-4-CF3)]P[Ac5c][NMeI][NMeD]-Pyrrolidide; lactam N-11), the IC50 [1] is reported as 0.87 nM and the IC50 [2] is reported as no more than 20 nM.
In the case of `CC[C@H](C)[C@@H]1NC(=O)[C@H](C)N(C)C(=O)C[C@@H](C(=O)N2CCCC2)N(C)C(=O)[C@H](C(C)C)N(C)C(=O)C2(CCCC2)NC(=O)[C@@H]2CCCN2C(=O)[C@H](CCc2ccc(C(F)(F)F)c(Cl)c2)NC(=O)[C@@H](C)N(C)C(=O)[C@H](CC2CCCCC2)N(C)C(=O)[C@@H]2CCN2C(=O)[C@H](C)N(C)C1=O` [Compound 1827] ([NMeA]I[NMeA][Aze][NMeCha][dNMeA][hPhe(3-Cl-4-CF3)]P[Ac5c][NMeV][NMeD]-Pyrrolidide; lactam N-11), the IC50 [1] is reported as 6.6 nM and the IC50 [2] is reported as greater than 500 nM.
`CC[C@H](C)[C@@H]1NC(=O)[C@H](CC(C)C)N(C)C(=O)C[C@@H](C(=O)N2CCCC2)N(C)C(=O)[C@H]([C@@H](C)CC)N(C)C(=O)C2(CCCC2)NC(=O)[C@@H]2CC(F)(F)CN2C(=O)[C@H](CCc2ccc(C(F)(F)F)c(Cl)c2)NC(=O)CN(C)C(=O)[C@H](Cc2ccc(C(F)(F)F)cc2)N(C)C(=O)[C@@H]2CCN2C(=O)[C@H](C)N(C)C1=O` [Compound 1242] ([NMeL]I[NMeA][Aze][NMePhe(4-CF3)][Sar][hPhe(3-Cl-4-CF3)][Pro(4,4-F2)][Ac5c][NMeI][NMeD]-Pyrrolidide; lactam N-11) gave an IC50 [1] of 0.52 nM and an IC50 [2] of no more than 20 nM.
In the case of `CC[C@H](C)[C@@H]1NC(=O)[C@H](CC(C)C)N(C)C(=O)C[C@@H](C(=O)N2CCCCC2)N(C)C(=O)[C@H](C2CCCCC2)N(C)C(=O)C2(CCCC2)NC(=O)[C@H](CCCCC(F)F)N(C)C(=O)[C@H](CCc2ccc(C(F)(F)F)c(Cl)c2)NC(=O)CN(C)C(=O)[C@H](CC2CCCCC2)N(C)C(=O)CN(C)C(=O)CN(C)C1=O` [Compound 796] ([NMeL]I[Sar][Sar][NMeCha][Sar][hPhe(3-Cl-4-CF3)][NMeNle(6-CHF2)][Ac5c][NMeChg][NMeD]-Piperidide; lactam N-11), the IC50 [1] is reported as 9.3 nM and the IC50 [2] is reported as greater than 500 nM.
